Laboratory results as given in article PMC10500570 (ACS Omega, 2023).

Experiments:
BChE from equine serum = BChE from equine serum (Equus caballus, UniProt P81908); assay: BChE inhibition, Ellman assay; format: biochemical
Human recombinant AChE = Human recombinant AChE (Homo sapiens, UniProt P22303); assay: AChE inhibition, Ellman assay; format: biochemical
SH-SY5Y cells = assay: SRB cytotoxicity assay; format: cell-based; settings: Homo sapiens, 48 h, read-out: GI50 ± SD

Chain of Human recombinant AChE (P22303 32-614): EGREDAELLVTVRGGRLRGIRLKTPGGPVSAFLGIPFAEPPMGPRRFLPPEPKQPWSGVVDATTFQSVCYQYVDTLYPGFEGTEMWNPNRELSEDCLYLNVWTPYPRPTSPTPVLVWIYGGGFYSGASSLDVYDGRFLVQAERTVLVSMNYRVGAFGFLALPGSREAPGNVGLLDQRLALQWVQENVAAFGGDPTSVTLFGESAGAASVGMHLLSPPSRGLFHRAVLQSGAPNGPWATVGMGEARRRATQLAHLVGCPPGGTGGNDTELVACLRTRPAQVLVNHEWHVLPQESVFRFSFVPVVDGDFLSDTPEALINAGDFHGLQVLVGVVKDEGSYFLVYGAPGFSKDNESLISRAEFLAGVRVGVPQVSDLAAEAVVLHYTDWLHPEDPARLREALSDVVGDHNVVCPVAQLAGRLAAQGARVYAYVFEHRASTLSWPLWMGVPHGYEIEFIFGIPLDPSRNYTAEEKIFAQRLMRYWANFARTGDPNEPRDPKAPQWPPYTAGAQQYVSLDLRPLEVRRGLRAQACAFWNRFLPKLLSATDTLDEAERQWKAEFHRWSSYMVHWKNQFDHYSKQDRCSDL
Chain of BChE from equine serum (P81908 whole entry): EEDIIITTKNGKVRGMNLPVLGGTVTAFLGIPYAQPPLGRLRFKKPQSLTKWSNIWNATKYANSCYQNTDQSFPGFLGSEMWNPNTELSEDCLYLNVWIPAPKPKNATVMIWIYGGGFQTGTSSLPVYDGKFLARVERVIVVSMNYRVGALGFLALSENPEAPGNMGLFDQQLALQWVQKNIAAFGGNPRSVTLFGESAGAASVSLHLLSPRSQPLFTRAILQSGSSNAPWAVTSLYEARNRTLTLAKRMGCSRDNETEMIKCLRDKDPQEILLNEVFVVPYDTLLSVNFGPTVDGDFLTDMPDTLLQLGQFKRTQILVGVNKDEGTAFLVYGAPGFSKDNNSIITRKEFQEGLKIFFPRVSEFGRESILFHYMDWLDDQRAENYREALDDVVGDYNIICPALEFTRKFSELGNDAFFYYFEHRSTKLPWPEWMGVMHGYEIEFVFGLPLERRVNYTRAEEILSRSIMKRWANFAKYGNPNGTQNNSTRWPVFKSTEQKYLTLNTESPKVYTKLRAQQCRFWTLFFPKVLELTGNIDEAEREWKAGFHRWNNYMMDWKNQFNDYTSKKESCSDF

Row | SMILES | IC50 (BChE from equine serum) | IC50 (Human recombinant AChE) | SI (selectivity index) (Human recombinant AChE; Selectivity index = BChE IC50/AChE IC50) | GI50 (SH-SY5Y cells)
1 | O=C1C=C(OCCCCCCCCn2cc(CNc3ccc4ncc(-c5ccccc5)nc4c3)nn2)C(=O)c2ccccc21 [Compound 7d] | 4.4 ± 0.4 µM | > 100 µM | <0.044 | > 100 µM
2 | O=C1C=C(OCCCCCCn2cc(CNc3ccc4ncc(-c5ccccc5)nc4c3)nn2)C(=O)c2ccccc21 [Compound 7c] | > 100 µM | > 100 µM |  | > 100 µM
